# Columns and labels:
# velvetleaf = experiment: Greenhouse post-emergent control of velvetleaf by emulsifiable concentrates (Example 30); format: in vivo
# Procedure: The efficacy of some photo-labile ester formulations from Example 28 for post-emergent control of velvetleaf was tested in the greenhouse. All formulations were tested at rates of 140, 280, 420, and 560 g dicamba equivalent per hectare rates and compared to the diglycolamine salt of dicamba (CLARITY®) at the same rates and untreated control plants. The velvetleaf plants were 10-15 cm in height at the time of spraying. Percent control was evaluated three weeks after treatment.
# The methodology of Example 29 was used to evaluate the efficacy of several photo-labile esters of dicamba for post-emergent control of velvetleaf as emulsifiable concentrate formulations described in Example 28.
# Palmer amaranth = experiment: Extended pre-emergent control of Palmer amaranth; format: in vivo; conditions: emulsifiable concentrate, 21 and 44 days after treatment
# [1] = In vitro dicamba photo-release from photo-labile dicamba esters, acetonitrile/10% water solvent (Example 27); format: physicochemical; conditions: acetonitrile containing 10% water
# Procedure: This Example describes in vitro testing of dicamba photo-release by homogeneous solutions of photo-labile dicamba esters. The esters were dissolved in tetrahydrofuran (THF). Ester concentration was 0.1 mM. 25 ml of the solution was transferred to 22 mm tubes fabricated from graded seal quartz tubing with a 19/22 tapered seal at the top, which was closed with a tapered glass plug and secured with a plastic ring clamp. The solution was entirely below the quartz-to-glass transition, ensuring that the entire volume was exposed to the full spectrum.
# The sealed tubes were placed in a Growth Chamber where they were exposed to simulated sunlight for 14 hours per day at 35° C. Dicamba concentrations in the solution were measured during the course of the photolysis.
# A sample of the initial solution was reserved in a glass vial away from the light source and analyzed at the conclusion of the study, providing a measurement of the amount of dicamba present without illumination of the photolysis solution (the “dark control”).
# This Example is another photolysis of photo-labile dicamba esters, but using acetonitrile containing 10% water by weight as the solvent. The experimental protocol is otherwise the same as in Example 18.
# [2] = Field dicamba volatility, airborne dicamba collected by air samplers (Example 34); format: physicochemical; conditions: field plot, 0.5 lb/acre dicamba a.e. with ROUNDUP WEATHERMAX, airborne dicamba collected over 24 hours, maximum 86° F.
smiles,measurement,setting,value
"COc1c(Cl)ccc(Cl)c1C(=O)Oc1cnc2ccccc2n1 [Ester 13a, 2-quinoxalinol ester of dicamba]","% Control of velvetleaf, 140 g/ha",velvetleaf; 140 g/ha,44%
same,"% Control of velvetleaf, 280 g/ha",velvetleaf; 280 g/ha,69%
same,"% Control of velvetleaf, 420 g/ha",velvetleaf; 420 g/ha,70%
same,"% Control of velvetleaf, 560 g/ha",velvetleaf; 560 g/ha,83%
same,"extended pre-emergent control of Palmer amaranth compared with the diglycolamine salt of dicamba, in words",Palmer amaranth,superior extended pre-emergent control
"COc1c(Cl)ccc(Cl)c1C(=O)OCCc1ccccc1[N+](=O)[O-] [Ester 2, 2-Nitrophenethyl Ester of Dicamba]",Dark Control % dicamba,[1]; no illumination,0%
same,"Conversion to dicamba, 1 day","[1]; simulated sunlight, 1 day",33%
same,"Conversion to dicamba, 2 days","[1]; simulated sunlight, 2 days",56%
same,"Conversion to dicamba, 3 days","[1]; simulated sunlight, 3 days",75%
same,"Conversion to dicamba, 5 days","[1]; simulated sunlight, 5 days",93%
same,"Conversion to dicamba, 7 days","[1]; simulated sunlight, 7 days",104%
same,"Conversion to dicamba, 11 days","[1]; simulated sunlight, 11 days",107%
same,"Conversion to dicamba, 13 days","[1]; simulated sunlight, 13 days",108%
same,"Conversion to dicamba, 15 days","[1]; simulated sunlight, 15 days",96%
same,"Conversion to dicamba, 19 days","[1]; simulated sunlight, 19 days",106%
"COc1c(Cl)ccc(Cl)c1C(=O)OCc1ccccc1[N+](=O)[O-] [Ester 1a, 2-Nitrobenzyl Ester of Dicamba]",average dicamba level from the five air samplers,[2],1.2 ng/m^3

# Reference: patent US20170029355A1, “LABILE ESTERS OF AGROCHEMICALS FOR CONTROLLED RELEASE AND REDUCTION OF OFF-SITE MOVEMENT” (Monsanto Technology LLC, priority 2011, published 2017)
